From paper PMC7587962, “Evaluation of Cytotoxicity and α-Glucosidase Inhibitory Activity of Amide and Polyamino-Derivatives of Lupane Triterpenoids” (Molecules, 2020)

Assays:
EKVX = assay: NCI-60 SRB screen: non-small cell lung cancer EKVX; format: cell-based, human
TK-10 = assay: NCI-60 SRB screen: renal cancer TK-10; format: cell-based, human; details: TK-10
A498 = assay: NCI-60 SRB screen: renal cancer A498; format: cell-based, human; details: A498
MDA-MB-231/ATCC = assay: NCI-60 SRB screen: breast cancer MDA-MB-231/ATCC; format: cell-based; details: Homo sapiens, 48 h
HOP-62 = assay: NCI-60 SRB screen: non-small cell lung cancer HOP-62; format: cell-based, human; details: HOP-62
CNS cancer subpanel = assay: NCI-60 screen, subpanel CNS cancer
SW-620 = assay: NCI-60 SRB screen: colon cancer SW-620; format: cell-based; details: Homo sapiens, 48 h, SW-620
HOP-92 = assay: NCI-60 SRB screen: non-small cell lung cancer HOP-92; format: cell-based, human; details: HOP-92
UO-31 = assay: NCI-60 SRB screen: renal cancer UO-31; format: cell-based, human; details: UO-31
Leukemia subpanel = assay: NCI-60 screen, subpanel Leukemia
[1] = tested on: 60 human tumor cell lines; details: single dose 10 µM
HCT-116 = assay: NCI-60 SRB screen: colon cancer HCT-116; format: cell-based; details: Homo sapiens, 48 h, HCT-116
SK-MEL-5 = assay: NCI-60 SRB screen: melanoma SK-MEL-5; format: cell-based, human; details: SK-MEL-5
IGROV1 = assay: NCI-60 SRB screen: ovarian cancer IGROV1; format: cell-based, human; details: IGROV1
KM12 = assay: NCI-60 SRB screen: colon cancer KM12; format: cell-based, human; details: KM12
Prostate cancer subpanel = assay: NCI-60 screen, subpanel Prostate cancer
NCI/ADR-RES = assay: NCI-60 SRB screen: ovarian cancer NCI/ADR-RES; format: cell-based, human
HCT-15 = assay: NCI-60 SRB screen: colon cancer HCT-15; format: cell-based, human; details: HCT-15
UACC-257 = assay: NCI-60 SRB screen: melanoma UACC-257; format: cell-based, human; details: UACC-257
SK-MEL-2 = assay: NCI-60 SRB screen: melanoma SK-MEL-2; format: cell-based, human; details: SK-MEL-2
COLO 205 = assay: NCI-60 SRB screen: colon cancer COLO 205; format: cell-based, human; details: COLO 205
MALME-3M = assay: NCI-60 SRB screen: melanoma MALME-3M; format: cell-based, human; details: MALME-3M
RXF 393 = assay: NCI-60 SRB screen: renal cancer RXF 393; format: cell-based, human; details: RXF 393
DU-145 = assay: NCI-60 SRB screen: prostate cancer DU-145; format: cell-based, human; details: DU-145
Colon Cancer subpanel = assay: NCI-60 screen, subpanel Colon Cancer
Renal Cancer subpanel = assay: NCI-60 screen, subpanel Renal Cancer
SF-295 = assay: NCI-60 SRB screen: CNS cancer SF-295; format: cell-based, human; details: SF-295
Breast cancer subpanel = assay: NCI-60 screen, subpanel Breast cancer
SR = assay: NCI-60 SRB screen: leukemia SR; format: cell-based; details: Homo sapiens, 48 h
HT29 = assay: NCI-60 SRB screen: colon cancer HT29; format: cell-based; details: Homo sapiens, HT29
HCC-2998 = assay: NCI-60 SRB screen: colon cancer HCC-2998; format: cell-based, human; details: HCC-2998
NCI-H226 = assay: NCI-60 SRB screen: non-small cell lung cancer NCI-H226; format: cell-based, human; details: NCI-H226
NSCL cancer subpanel = assay: NCI-60 screen, subpanel NSCL cancer
SNB-19 = assay: NCI-60 SRB screen: CNS cancer SNB-19; format: cell-based, human; details: SNB-19
U251 = assay: NCI-60 SRB screen: CNS cancer U251; format: cell-based; details: Homo sapiens, U251
CCRF-CEM = assay: NCI-60 SRB screen: leukemia CCRF-CEM; format: cell-based; details: Homo sapiens, 48 h
NCI-H322M = assay: NCI-60 SRB screen: non-small cell lung cancer NCI-H322M; format: cell-based, human
[2] = Homo sapiens, five concentrations, 48 h, SRB, read-out: GI50
[3] = single dose 10 µM, read-out: Percentage Cell Growth
[4] = five concentrations, SRB, read-out: GI50

Compound: C=C(C)[C@@H]1CC[C@]2(C(=O)NCCCN)CC[C@]3(C)[C@H](CC[C@@H]4[C@@]5(C)CCC(=O)C(C)(C)[C@@H]5CC[C@]43C)[C@@H]12 [Compound 10]
- GI50 (EKVX; [2]): 23.3 µM
- Percentage Cell Growth (EKVX; single dose 10 µM): −15.68%
- GI50 (TK-10; [2]): 23.9 µM
- Percentage Cell Growth (TK-10; single dose 10 µM): −32.23%
- Percentage Cell Growth (A498; single dose 10 µM): −44.82%
- GI50 (A498; [2]): 22.9 µM
- activity at 10 µM (MDA-MB-231/ATCC; MDA-MB-231/ATCC, single dose 10 µM, read-out: Percentage Cell Growth): -47.8%
- GI50 (MDA-MB-231/ATCC; MDA-MB-231, MDA-MB-31/ATCC, five concentrations, SRB, read-out: GI50): 21.1 µM
- Percentage Cell Growth (HOP-62; single dose 10 µM): −26.80%
- GI50 (HOP-62; [2]): 18.3 µM
- MID b, average sensitivity of all cell line of particular subpanel (CNS cancer subpanel): 23.00 µM
- Selectivity, ratio MID a: MID b (CNS cancer subpanel): 0.89
- activity at 10 µM (SW-620; [3]): -36.2%
- GI50 (SW-620; [4]): 22.5 µM
- Percentage Cell Growth (HOP-92; single dose 10 µM): −55.49%
- GI50 (HOP-92; [2]): 10.8 µM
- GI50 (UO-31; [2]): 38.9 µM
- Percentage Cell Growth (UO-31; single dose 10 µM): −34.32%
- MID b, average sensitivity of all cell line of particular subpanel (Leukemia subpanel): 14.59 µM
- Selectivity, ratio MID a: MID b (Leukemia subpanel): 1.40
- cancer cell lethality, range of percentage growth ([1]; cell lines with negative growth): −2.14% to −100%
- cases of cancer cell lethality ([1]; number of cell lines): 48
- activity at 10 µM (HCT-116; [3]): 1.97%
- GI50 (HCT-116; [4]): 13.9 µM
- GI50 (SK-MEL-5; [2]): 19.4 µM
- Percentage Cell Growth (SK-MEL-5; single dose 10 µM): −23.93%
- GI50 (IGROV1; Homo sapiens, IGROV-1, five concentrations, 48 h, SRB, read-out: GI50): 21.5 µM
- Percentage Cell Growth (IGROV1; single dose 10 µM): −6.94%
- GI50 (KM12; [2]): 17.3 µM
- Percentage Cell Growth (KM12; single dose 10 µM): −25.31%
- MID b, average sensitivity of all cell line of particular subpanel (Prostate cancer subpanel): 15.05 µM
- Selectivity, ratio MID a: MID b (Prostate cancer subpanel): 1.36
- GI50 (NCI/ADR-RES; [2]): 24.8 µM
- Percentage Cell Growth (NCI/ADR-RES; single dose 10 µM): −9.52%
- Percentage Cell Growth (HCT-15; single dose 10 µM): −22.06%
- GI50 (HCT-15; [2]): 21.7 µM
- GI50 (UACC-257; [2]): 20.6 µM
- Percentage Cell Growth (UACC-257; single dose 10 µM): −46.67%
- GI50 (SK-MEL-2; [2]): 27.3 µM
- Percentage Cell Growth (SK-MEL-2; single dose 10 µM): −24.21%
- Percentage Cell Growth (COLO 205; single dose 10 µM): 7.82%
- GI50 (COLO 205; [2]): 21 µM
- GI50 (MALME-3M; [2]): 23.3 µM
- Percentage Cell Growth (MALME-3M; single dose 10 µM): −18.76%
- GI50 (RXF 393; [2]): 17.1 µM
- Percentage Cell Growth (RXF 393; single dose 10 µM): −42.28%
- Percentage Cell Growth (DU-145; single dose 10 µM): −100.00%
- GI50 (DU-145; [2]): 17.5 µM
- MID b, average sensitivity of all cell line of particular subpanel (Colon Cancer subpanel): 17.82 µM
- Selectivity, ratio MID a: MID b (Colon Cancer subpanel): 1.15
- MID b, average sensitivity of all cell line of particular subpanel (Renal Cancer subpanel): 23.80 µM
- Selectivity, ratio MID a: MID b (Renal Cancer subpanel): 0.86
- GI50 (SF-295; [2]): 22.6 µM
- Percentage Cell Growth (SF-295; single dose 10 µM): −26.39%
- MID b, average sensitivity of all cell line of particular subpanel (Breast cancer subpanel): 20.30 µM
- Selectivity, ratio MID a: MID b (Breast cancer subpanel): 1.01
- activity at 10 µM (SR; [3]): 23.7%
- GI50 (SR; [4]): 9.05 µM
- activity at 10 µM (HT29; HT-29, 48 h, single dose 10 µM, read-out: Percentage Cell Growth): 3.9%
- GI50 (HT29; HT-29, five concentrations, 48 h, SRB, read-out: GI50): 6.95 µM
- Percentage Cell Growth (HCC-2998; single dose 10 µM): −23.40%
- GI50 (HCC-2998; [2]): 21.4 µM
- GI50 (NCI-H226; [2]): 21.2 µM
- Percentage Cell Growth (NCI-H226; single dose 10 µM): 36.64%
- MID b, average sensitivity of all cell line of particular subpanel (NSCL cancer subpanel): 18.71 µM
- Selectivity, ratio MID a: MID b (NSCL cancer subpanel): 1.09
- GI50 (SNB-19; [2]): 24.7 µM
- Percentage Cell Growth (SNB-19; single dose 10 µM): −29.49%
- activity at 10 µM (U251; U-251, 48 h, single dose 10 µM, read-out: Percentage Cell Growth): -13.8%
- GI50 (U251; U-251, five concentrations, 48 h, SRB, read-out: GI50): 17.7 µM
- activity at 10 µM (CCRF-CEM; [3]): 1.39%
- GI50 (CCRF-CEM; [4]): 22.1 µM
- GI50 (NCI-H322M; [2]): 17.6 µM
- Percentage Cell Growth (NCI-H322M; single dose 10 µM): −68.83%
